Laboratory results as given in patent US20250108135A1, “TERAGNOSTIC METHOD FOR CANCER PATIENTS” (priority 2022, published 2025).

What was measured:
U-87 GM cells = details: nude mice implanted with U-87 GM cells; cited from earlier work
[1] = tested on: Human GBM cell lines (LI) PARI, ADF and T98G; details: time and dose dependent; cited from earlier work
[2] = Biodistribution, pharmacokinetics, dosimetry and safety in glioblastoma patients; type: in vivo, human
Description: Six glioblastoma patients were evaluated for safety profile and the study of biodistribution was conducted including evaluation of PET/CT scans after first daily dose administration of radiopharmaceutical composition having a radioconcentration of 2,775 MBq/mL (day 0), at different time points 1 h, 4 h, 24 h, 48 h after injection and pharmacokinetic (PK) radioactivity on blood samples at different time points of administration.

[3] = tested on: PCa spheroids (derived from 22RV1, DU145, and LNCaP cells); details: in vitro; cited from earlier work
[4] = tested on: U87MG, PC-3, CAMA1, C8161, HT-29, A549 cancer cell lines; test: 64CuCl2 tumor cell uptake (internalization) at different radioconcentrations; type: cell-based; details: 4 h after treatment; same dose of radioactivity; higher radioconcentrations (2,775 and 1,850 MBq/mL) compared to the lowest (925 MBq/mL); all the cell lines
Description: (§1) The capability resulted improved at a radioconcentration higher than 925 MBq/mL compared to lower concentrations. This is the first time that the impact of the drug radioconcentration has been correlated to the cell-killing effect for the translation to humans. The inventor performed internalization and survival studies on different cancer cell lines (U87MG [glioblastoma], PC-3[prostate cancer], CAMA1 [breast cancer], C8161[melanoma], HT-29[colorectal cancer]), A549 [lung cancer] applying the same amount (dose) of radioactivity (eg. 10 MBq), but at different radioconcentrations, e.g. 2,775 MBq/mL vs. 1,850 MBq/mL, vs. 925MBq/mL.
(§2) This effect of the radioconcentration could have a great impact on patients for the optimization of treatment. In fact, in consideration of the mechanism through which ^64Cu reaches the tumor cell, the different radioconcentrations, that is to say “the number of nuclear disintegrations per unit time in a given amount of the preparation”, can influence the biodistribution in vivo. […]
FIG. 1—Impact of different radioconcentrations on tumor cell uptake ^64CuCl2 cell uptake in different tumor cell lines U87MG, PC-3, CAMA1, C8161, HT-29. Cell uptake was evaluated treating cells at the same dosage (15 MBq/dish 100 mm), but at three different radioconcentrations C1=925 MBq/mL, C2=1,850 MBq/mL, C3=2,775 MBq/mL. Values are expressed as mean ±SEM.

glioblastoma = test: Response to 64CuCl2 treatment in glioblastoma patients (MRI, RANO criteria); type: in vivo, human
Description: A glioblastoma patient of 70 kg that belongs to the class of recurrent glioblastoma. The patient underwent surgery, radiotherapy and chemotherapy and after that experienced recurrence. Standard treatment are not effective in this setting therefore the patient received a diagnostic dose of ^64CuCl2 equal to 925 MBq. After 1 h from administration a PET/CT scan is performed. The patient resulted positive for copper lesion at the diagnostic dose and started treatment
The treatment with ^64CuCl2 (2,775 MBq/mL) for intravenous use by injection followed this scheme and the patient received once a week: • 1st dose=4,810 MBq, 2nd dose=4,810 MBq, 3rd dose=4,810 MBq, 4th dose=4,810 MBq, 5th dose=4,810 MBq, 6th dose=4,810 MBq, 7th dose=4,810 MBq
The patient (71 Kg) underwent surgery, radiotherapy and chemotherapy and after that experienced recurrence. Standard treatments are not effective in this setting therefore the patient received a diagnostic dose of ^64CuCl2 equal to 925 MBq. After 1 h from administration a PET/CT scan is performed. The patient resulted positive for copper lesion at the diagnostic dose and started treatment (^64CuCl2 277 MBq/mL for intravenous by infusion).
The treatment followed this scheme and the patient received once a week: • 1st dose=1,850 MBq, 2nd dose=2,460 MBq, 3rd dose=2,922 MBq, 4th dose=3,292 MBq, 5th dose=3,606 MBq, 6th dose=3,865 MBq, 7th dose=4,068 MBq.
The phase I clinical trial on glioblastoma is the first study evaluating preliminary efficacy of ^64CuCl2 2,775 MBq/mL as therapeutic agent. This determination was performed on 10 patients, at the end of the 7th therapy dose, at 90th day (after 3 months of the last treatment) and whenever possible at 180th day to obtain a wider evaluation of the disease status. Data cut-off was performed after 5 patients. The response to treatment, in term of anti-tumor activity of ^64CuCl2, was measured by MRI, assessed according to the RANO criteria (Response Assessment in Neuro-Oncology, see Wen PY et al.) and defined as complete response (disappearance of tumor) partial response (reduction) and stable disease (non-progression of GBM). Among these patients 4 resulted responders and 1 non-responder. […] Tumor volume reduction ≥50% was also shown in two cases after three months from the last treatment, and in one patient after 6 months from the last treatment.

U87MG = test: Cell survival (cell-killing effect) at different radioconcentrations; type: cell-based
Description: as §1, §2
Survival curve of U87MG treated with the same dosage range but at three different concentrations C1=925 MBq/mL, C2=1,850 MBq/mL, C3=2,775 MBq/mL. Value are expressed as mean ±SEM. […]

B16F10 or A375M tumors = details: vs control group, cited from earlier work
[5] = tested on: 5 human neoplastic cell lines (ovarian cancer, head and neck, neuroendocrine lung carcinoma, colorectal cancer, glioblastoma); details: microPET after administration of 64CuCl2; cited from earlier work
[6] = Effective dose of the diagnostic 64CuCl2 administration; type: in vivo, human; details: diagnostic dose 370-925 MBq
Description: Patients with tumor received ^64CuCl2 at a dose between 370-925 MBq to ensure appropriate image quality. The mean effective dose for ^64CuCl2 calculated is 20 mSv per exam, which is aligned with the ones from the conventional PET imaging.

prostate cancer = test: Response to 64CuCl2 treatment in prostate cancer patients (PET/CT); type: in vivo, human
Description: The patient at initial diagnosis had local tumor, and after surgery (radical prostatectomy) they underwent radiotherapy and chemotherapy. However, they experienced local recurrence plus a bone metastatic lesion. After receiving all standard treatments, the patient received a diagnostic dose of ^64CuCl2 equal to 925 MBq. After 1 h from administration a PET/CT scan is performed. The patient resulted positive for copper lesion at the diagnostic dose and started treatment. […] The PET/CT acquired the same day of the 4th therapeutic administration and the PET/CT acquired before treatment beginning were analyzed by two independent observers (a third observer expressed another evaluation only in case of discrepancies).

[7] = six glioblastoma patients, 2,775 MBq/mL
[8] = phase I glioblastoma, 2,775 MBq/mL, data cut-off after 5 patients, 7 treatments

[Cl][Cu][Cl] [^64CuCl2, Copper Chloride]
tumor volume, in some cases (U-87 GM cells): complete regression | modulation of cell viability [1]: dose dependent | treatment related toxicities associated to liver/kidney and red marrow distribution ([2]; glioblastoma patients): No treatment related toxicities were registered | biodistribution (organ uptake) [2, 7]: significant uptake in the liver (as expected) followed by kidney and L2-L4 regions | effective dose, median [2, 7]: 26.08 mSv | 64Cu uptake over time (pharmacokinetic profile) ([2]; six glioblastoma patients, 2,775 MBq/mL, PET/CT 1 h, 4 h, 24 h, 48 h after injection): increases up to 4 h post-injection and decreased thereafter | growth of spheroids [3]: reduce their growth | cell uptake [4]: significantly greater | patients with tumor volume reduction ≥50% (glioblastoma; 6 months from the last treatment): one | patients with reduction of tumor volume ≥50% compared to baseline MRI (glioblastoma; day 42 evaluation): one | patients with stable disease (glioblastoma; day 42 evaluation, responder patients): 3 patients | patients with stable disease (glioblastoma; day 90): 2 patients | number of non-responders (glioblastoma; [8]): 1 | number of responders (glioblastoma; [8]): 4 | response to the treatment (glioblastoma; recurrent glioblastoma patient (71 Kg), 277 MBq/mL i.v. infusion, 7 increasing doses 1,850-4,068 MBq once a week): responder | cases with tumor volume reduction ≥50% (glioblastoma; three months from the last treatment): two | patients with stable disease (glioblastoma; up to six months after treatment): one | cell-killing effect (U87MG; 24 h after treatment, 2,775 MBq/mL, U87MG survival curve): increased cell-killing effect | improved cell killing-effect compared to C1 (U87MG; C3=2,775 MBq/mL vs C1=925 MBq/mL at D4=1.7 MBq and D5=3.4 MBq): about 30% | tumor growth (B16F10 or A375M tumors; B16F10 and A375M models, one dose about 74 MBq): much slower than that of the control group | survival (B16F10 or A375M tumors; mice bearing B16F10 or A375M tumors): significantly improved survival | uptake of 64Cu2+ by neoplastic tissues [5]: significant uptake | mean effective dose per exam [6]: 20 mSv | volume of lesions (PET/CT) (prostate cancer; five prostate cancer patients, after 4 administrations, 2,775 MBq/mL solution for injection): a reduction or a non-progression | tumor lesions on the bone, PET/CT before and after treatment (prostate cancer; metastatic prostate cancer patient, 2,775 MBq/mL injection, 7 doses of 4,810 MBq once a week): reduction of the tumor lesions on the bone
